Measured values reported in US20240158447A1, “PEPTIDES FOR USE IN THE TREATMENT OR PREVENTION OF MYOCARDIAL DAMAGE” (THE UNIVERSITY OF WESTERN AUSTRALIA, priority 2020, published 2024).

Experiments:
[1] = system: cTnI-G203S mutant myocytes; assay: Flavoprotein oxidation response to BayK(−), cTnI-G203S myocytes (Example 10); format: cell-based, mouse; settings: 0.5 μM peptide, 10 μM BayK(−), FIG. 10D
Procedure: (§1) In this experiment wt myocytes were pre-exposed to 0.1, 0.5 or 1 μM for 20 min and assessed changes in flavoprotein oxidation and ψm.
Measurement of mitochondrial flavoprotein oxidation: Flavoprotein autofluorescence was used to measure flavoprotein oxidation based on previously described methods (Yaniv Y, Juhaszova M, Lyashkov A E, Spurgeon H A, Sollott S J, Lakatta E G. Ca2+-regulated-cAMP/PKA signaling in cardiac pacemaker cells links ATP supply to demand. J Mol Cell Cardiol. 2011; 51(5):740-8). […] Fluorescent images were acquired at 1 min intervals with 200 ms exposure. Metamorph 6.3 (Version 7.10.3) was used to quantify the signal by manually tracing myocytes. […] Fluorescence values recorded over 5 min before and 5 min after addition of drugs were averaged and alterations in fluorescent ratios reported as the percentage increase from the basal average. FCCP (50 μM) and NaCN (40 mM) was added at the end of each experiment to achieve a respective maximal and minimal fluorescence value indicative of maximal and minimal flavoprotein oxidation.
The ICA-L agonist BayK(−) was used to activate the channel and assess mitochondrial function. […] FIG. 10 presents the mean+/−SEM of flavoprotein fluorescence from cTnI.2 wt and cTnI-G2035 mutant myocytes before and after exposure to 10 μM BayK(−) in the presence of 1 μM AID(S)-TAT, and increasing concentrations of variant peptides as indicated. […]

[2] = system: cTnI.2 wt myocytes; assay: Mitochondrial membrane potential (JC-1) response to BayK(−), wt myocytes (Example 10); format: cell-based, mouse; settings: 0.5 μM peptide, calcium-free, FIG. 11A
Procedure: as §1
Measurement of mitochondrial membrane potential: The fluorescent indicator 5,5′,6,6′-tetrachloro1,1′,3,3′-tetraethylbenzimidazolylcarbocyanine iodide (JC-1) was used to measure mitochondrial membrane potential (ψm) as previously described (Viola H M, Arthur P G, Hool L C. Transient exposure to hydrogen peroxide causes an increase in mitochondria-derived superoxide as a result of sustained alteration in L-type Ca2+ channel function in the absence of apoptosis in ventricular myocytes. Circ Res. 2007; 100(7):1036-44). […] Images were acquired at 2 min intervals with 50 ms exposure. Metamorph 6.3 (Version 7.10.3) was used to quantify the signal by manually tracing myocytes. An equivalent region not containing cells was used as background and was subtracted. The 580 nm/535 nm ratiometric fluorescence values recorded over 6 min before and 4 min after addition of drugs were averaged and alterations in fluorescent ratios reported as the percentage increase from the basal average. […] In addition, individual 580 and 535 signals were assessed in each experiment to determine whether the fluorescent indicator was accurately measuring ψm. […]
Based on results obtained from in vitro assessment of flavoprotein oxidation, the effect of 0.5 μM AID-TAT variants on changes in mitochondrial membrane potential (ψm) was further explored. Experiments were performed using JC-1 fluorescence under calcium-free conditions as previously described (Viola H, Johnstone V, Cserne Szappanos H, Richman T, Tsoutsman T, Filipovska A, et al. The L-type Ca(2+) channel facilitates abnormal metabolic activity in the cTnI-G2035 mouse model of hypertrophic cardiomyopathy. J Physiol. 2016; 594(14):4051-70; Viola H M, Shah A A, Johnstone V P A, Cserne Szappanos H, Hodson M P, Hool L C. Characterization and validation of a preventative therapy for hypertrophic cardiomyopathy in a murine model of the disease. Proc Natl Acad Sci U S A. 2020; 117(37):23113-24). […]

[3] = system: cTnI-G203S mutant myocytes; assay: Mitochondrial membrane potential (JC-1) response to BayK(−), cTnI-G203S myocytes (Example 10); format: cell-based, mouse; settings: for BayK(−) induced increase in ψm (JC-1 fluorescence): 0.5 μM peptide, calcium-free, FIG. 11B
Procedure: as §1
Measurement of mitochondrial membrane potential: The fluorescent indicator 5,5′,6,6′-tetrachloro1,1′,3,3′-tetraethylbenzimidazolylcarbocyanine iodide (JC-1) was used to measure mitochondrial membrane potential (ψm) as previously described (Viola H M, Arthur P G, Hool L C. Transient exposure to hydrogen peroxide causes an increase in mitochondria-derived superoxide as a result of sustained alteration in L-type Ca2+ channel function in the absence of apoptosis in ventricular myocytes. Circ Res. 2007; 100(7):1036-44). […] Images were acquired at 2 min intervals with 50 ms exposure. Metamorph 6.3 (Version 7.10.3) was used to quantify the signal by manually tracing myocytes. An equivalent region not containing cells was used as background and was subtracted. The 580 nm/535 nm ratiometric fluorescence values recorded over 6 min before and 4 min after addition of drugs were averaged and alterations in fluorescent ratios reported as the percentage increase from the basal average. To confirm that the signal was indicative of ψm, 40 mM NaCN was added at the end of each experiment to collapse ψm. In addition, individual 580 and 535 signals were assessed in each experiment to determine whether the fluorescent indicator was accurately measuring ψm. For calcium-free experiments, cells were exposed to calcium-free HBS (supplemented with 3 mM EGTA and 200 nM JC-1) for at least 3 h prior to measuring changes in ψm.
Based on results obtained from in vitro assessment of flavoprotein oxidation, the effect of 0.5 μM AID-TAT variants on changes in mitochondrial membrane potential (ψm) was further explored. Experiments were performed using JC-1 fluorescence under calcium-free conditions as previously described (Viola H, Johnstone V, Cserne Szappanos H, Richman T, Tsoutsman T, Filipovska A, et al. The L-type Ca(2+) channel facilitates abnormal metabolic activity in the cTnI-G2035 mouse model of hypertrophic cardiomyopathy. J Physiol. 2016; 594(14):4051-70; Viola H M, Shah A A, Johnstone V P A, Cserne Szappanos H, Hodson M P, Hool L C. Characterization and validation of a preventative therapy for hypertrophic cardiomyopathy in a murine model of the disease. Proc Natl Acad Sci U S A. 2020; 117(37):23113-24). […] FIG. 11 presents the mean+/−SE of JC-1 fluorescence from cTnI.2 wt and cTnI-G203S mutant myocytes before and after exposure to 10 μM BayK(−) in the presence of 1 μM AID(S)-TAT, and 0.5 μM of variant peptides as indicated. N=no. of animals, n=no. of cardiomyocytes. P values shown compared with AID(S)-TAT as determined by the Kruskal-Wallis test.

[4] = system: cTnI-G203S mice; assay: Echocardiography of pre-cardiomyopathic cTnI-G203S mice (Example 15); format: in vivo, mouse; settings: 5 μM, 3×/wk/5 wk; versus AID(S)-TAT; FIG. 15
Description: Twenty to thirty week-old male mice expressing the human cTnI gene encoding the human disease-causing cTnI-G203S were generated and used for the in vivo studies. By way of background, the mice develop hallmark features of HCM between 20 and 25 weeks (Viola H, Johnstone V, Cserne Szappanos H, Richman T, Tsoutsman T, Filipovska A, et al. The L-type Ca(2+) channel facilitates abnormal metabolic activity in the cTnI-G2035 mouse model of hypertrophic cardiomyopathy. J Physiol. 2016; 594(14):4051-70; Viola H M, Shah A A, Johnstone V P A, Cserne Szappanos H, Hodson M P, Hool L C. Characterization and validation of a preventative therapy for hypertrophic cardiomyopathy in a murine model of the disease. Proc Nati Aced Sci U S A. 2020; 117(37):23113-24; Tsoutsman T, Chung J, Doolan A, Nguyen L, Williams IA, Tu E, et al. Molecular insights from a novel cardiac troponin I mouse model of familial hypertrophic cardiomyopathy. J Mol Cell Cardiol. 2006; 41(4):623-32). Age-matched male mice expressing the normal human troponin I gene were used as controls and indicated as wild-type (wt). For in vivo studies, 20-week old cTnI-G203S mice were treated with 10 μM AID(S)-TAT (2 mg/kg) or 5 μM AID-TAT mutant peptides via intraperitoneal injection, 3 times per week for a total duration of 5 weeks. The peptide was dissolved in phosphate buffered saline solution (PBS), and the total amount of the 10 μM AID-TAT mutant peptides administered over 5 weeks was 0.9 mg. The total amount of the 5 μM AID-TAT mutant peptides administered over 5 weeks was 0.45 mg Male mice were utilized to eliminate potential differences in responses due to gender. The number of mice used is indicated by N.
Echocardiographic studies to measure left ventricular function were performed on mice under light methoxyflurane anaesthesia with the use of an i13L probe on a Vivid™ 7 IQ ultrasound system (GE Healthcare, Little Chalfont, UK) as previously described (Viola H, Johnstone V, Cserne Szappanos H, Richman T, Tsoutsman T, Filipovska A, et al. The L-type Ca(2+) channel facilitates abnormal metabolic activity in the cTnI-G2035 mouse model of hypertrophic cardiomyopathy. J Physiol. 2016; 594(14):4051-70; Viola H M, Shah A A, Johnstone V P A, Cserne Szappanos H, Hodson M P, Hool L C. Characterization and validation of a preventative therapy for hypertrophic cardiomyopathy in a murine model of the disease. Proc Natl Acad Sci U S A. 2020; 117(37):23113-24; Viola H M, Johnstone V P A, Cserne Szappanos H, Richman T R, Tsoutsman T, Filipovska A, et al. The Role of the L-Type Ca(2+) Channel in Altered Metabolic Activity in a Murine Model of Hypertrophic Cardiomyopathy. JACC Basic Transl Sci. 2016; 1(1-2):61-72). Each N represents the average of quantitative measurements from wt or cTnI-G203S mice for each treatment group.

[5] = system: cTnI-G203S mice; assay: Heart weight to body weight ratio of treated cTnI-G203S mice; format: in vivo, mouse; settings: 5 μM, 3×/wk/5 wk; compared with cTnI-G203S AID(S)-TAT; FIG. 16
Procedure: The effect of treatment of the mice with peptides on the development of hypertrophy assessed as changes in heart weight to body weight ratio was also examined. […] FIG. 16 presents the mean±SEM of heart weight to body weight ratio measurements from wt and cTnI-G203S mice treated with 10 μM AID(S)-TAT, 10 μM AID-TAT, 5 μM AIDP7-TAT, 5 μM AIDP14-TAT, 5 μM AIDP15-TAT or 5 μM AIDP16-TAT. n=number of mice as indicated. *P<0.05, **P<0.01 compared with cTnI-G203S AID(S)-TAT as determined by Kruskal-Wallis tests.

[6] = system: cTnI.2 wt myocytes; assay: Flavoprotein oxidation response to BayK(−), wt myocytes (Example 10); format: cell-based, mouse; settings: 1 μM peptide 20 min, 10 μM BayK(−), FIG. 10A
Procedure: as §1
Measurement of mitochondrial flavoprotein oxidation: Flavoprotein autofluorescence was used to measure flavoprotein oxidation based on previously described methods (Yaniv Y, Juhaszova M, Lyashkov A E, Spurgeon H A, Sollott S J, Lakatta E G. Ca2+-regulated-cAMP/PKA signaling in cardiac pacemaker cells links ATP supply to demand. J Mol Cell Cardiol. 2011; 51(5):740-8). […] Fluorescent images were acquired at 1 min intervals with 200 ms exposure. Metamorph 6.3 (Version 7.10.3) was used to quantify the signal by manually tracing myocytes. An equivalent region not containing cells was used as background and was subtracted. Fluorescence values recorded over 5 min before and 5 min after addition of drugs were averaged and alterations in fluorescent ratios reported as the percentage increase from the basal average. FCCP (50 μM) and NaCN (40 mM) was added at the end of each experiment to achieve a respective maximal and minimal fluorescence value indicative of maximal and minimal flavoprotein oxidation.
The ICA-L agonist BayK(−) was used to activate the channel and assess mitochondrial function. […] FIG. 10 presents the mean+/−SEM of flavoprotein fluorescence from cTnI.2 wt and cTnI-G2035 mutant myocytes before and after exposure to 10 μM BayK(−) in the presence of 1 μM AID(S)-TAT, and increasing concentrations of variant peptides as indicated. N=no. of animals, n=no. of cardiomyocytes. P values shown compared with AID(S)-TAT as determined by the Kruskal-Wallis test.

Row | Substance | BayK(−) induced increase in flavoprotein oxidation [1] | BayK(−) induced increase in ψm (JC-1 fluorescence) [2] | BayK(−) induced increase in ψm (JC-1 fluorescence) [3] | normalising mitochondrial metabolic activity (in vitro, overall) ([3]; flavoprotein oxidation and JC-1 data together) | EF, ejection fraction [4] | FS, fractional shortening [4] | IVSd, intraventricular septum in diastole [4] | IVSs, intraventricular septum in systole [4] | LVEDd, left ventricular end diameter during diastole [4] | LVEDs, left ventricular end diameter during systole [4] | LVPWd, left ventricular posterior wall in diastole [4] | LVPWs, left ventricular posterior wall in systole [4] | heart weight to body weight ratio [5] | BayK(−) induced increase in flavoprotein oxidation [6]
1 | AIDP14-TAT: QQEEEDLKGYLDWITQAE with TAT sequence | significantly attenuated increases in flavoprotein oxidation resulting from BayK(−) exposure | significantly attenuated the response | significantly attenuated the response | most effective in normalising mitochondrial metabolic activity | effectively restored | effectively restored | effectively restored | effectively restored | trend toward increased LVEDd | effectively restored | effectively restored | effectively restored | significantly decreased heart weight/body weight | –
2 | AIDP15-TAT: QQEEEDEKGYLDWITQAE with TAT sequence | – | significantly attenuated the response | significantly attenuated the response | – | effectively restored | effectively restored | effectively restored | effectively restored | – | – | – | effectively restored | – | just as effective at attenuating the response in wt myocytes as the original AID-TAT
